# Results published in patent EP1935887A1, “Heterocyclic substituted carbonyl derivatives and their use as dopamine D3 receptor ligands” (Aventis Pharmaceuticals Inc., priority 2001, dated 2002).
# Target: T1, Cloned Human Dopamine D3 Receptors (Homo sapiens, UniProt P35462)
# T1 construct: expressed in transfected cells; membrane homogenate
# Test: [N-Methyl-3H]Spiroperidol binding to cloned human dopamine D3 receptors
# Settings: D3 Ki (nM)
# Source text: [N-Methyl-^3H]Spiroperidol Binding to Cloned Human Dopamine D3 Receptors
# This assay measures the in vitro activity of compounds on cloned human dopamine (D3) receptors and predicts the direct dopamine-blocking properties of putative neuropsychiatric agents at human dopamine D3 receptors.
# The D3 gene was isolated from a human striatal cDNA library (Stratagene). The gene was sequenced and sub-cloned into the expression vector RC/RSV (Invitrogen). CHO (Chinese Hamster Ovary) cells were stably transfected with 10 µg of the D3/RSV plasmid using the DOTAP method from Boehringer Mannheim and 72 clones that were G418 resistant were isolated. Using mRNA and binding displacement data a single high expressing clone was identified. This clone was then grown in large batches for the purpose of developing a 96 well format assay.
# • 1. One plate (10 cm) with approximately 2-3 million D3 cells per plate is incubated with 1 ml of Trypsin-EDTA at room temperature for -2 min or until cells have lifted off plates. Four ml of Ham's F12 + 10% Fetal Bovine Serum + 1% Penicillin/Streptomycin + G418 (400 µg/ml) medium are added to resuspend cells and 1 ml of this is added to each large plate (15 cm) containing 19 ml of the same medium as mentioned above. • 2. The 5 large plates are incubated at 37°C + 5% CO2 for - 3 days or until the cells are confluent. • 3. After these plates are confluent, they are split into 10 large plates. Medium is aspirated off, 2 ml of Trypsin-EDTA are added to each plate and plates are incubated at RT for 2 min or until cells have lifted off the plate. Eight ml of the F12 medium (same medium as #1 above) are added to each plate (10 ml total) to resuspend the cells and 5 ml are transferred to the 2 new plates containing 15 ml of the F12 media. • 4. The 10 large plates are incubated at 37°C + 5% CO2 for ∼ 2 days or until the cells are confluent. • 5. The 10 large plates are split into 60 large plates (using Trypsin-EDTA as #3 except 4 ml of F12 medium are added to resuspend cells and 1 ml is aliquoted to 6 new plates containing 19 ml of F12 medium each). • 6. Plates are incubated at 37°C + 5% CO2 for - 3 days or until cell are confluent. • 7. The 60 large plates are then split into 60 roller bottles (100-150 million cells/bottle). Medium is aspirated off , 2 ml of Trypsin-EDTA are added to each plate and incubated at RT for -2 minutes or until cells have lifted off plates. Eight ml of F12 medium are added to each plate to resuspend cells and the entire 10 ml are added to 1 roller bottle containing 90 ml of the F12 medium. • 8. The 60 roller bottles are immediately placed on their sides and transferred to the roller bottle incubator. They are incubated at 37°C + 5% CO2 for ~ 3-5 days. Cells are spun at 30-40% motor speed in the Forma incubator. • 9. Medium is poured off and cells are washed 2X in PBS. • 10. Cells are then scraped off in 20 ml of PBS and the bottles are rinsed again with 5 ml of PBS to remove any remaining cells. Cells are stored on ice before membrane prepration. • 11. The yield for 60 D3 roller bottles has varied from - 260-500 mg. Note: All tissue culture reagents are from Gibco-BRL.
# The cells are harvested into 250 ml centrifuge tubes with 100 volumes of cold phosphate buffered saline (PBS) and spun down (1200xG for 10 min at 4°C). The medium is removed and 100 ml PBS are added to each centrifuge tube, cells are resuspened and spun down again. The PBS is removed and the final pellet is homogenized in an appropriate volume of 10% DMSO with a polytron on ice at a medium setting.
# A 200 µl sample membrane homogenate is added to 200 µl of 1% SDS, vortexed and allowed to stand for 5 min. Aliquots (25, 50 and 100 µl) of this mixture are assayed in duplicate following the standard Bio-Rad DC protein assay protocol (kit catalog number 500-0112) and using reagent S. Absorbance readings are made at 750 nm (note: the most accurate protein OD readings are between 0.1-0.5 units). […]
# T1 sequence (P35462 whole entry): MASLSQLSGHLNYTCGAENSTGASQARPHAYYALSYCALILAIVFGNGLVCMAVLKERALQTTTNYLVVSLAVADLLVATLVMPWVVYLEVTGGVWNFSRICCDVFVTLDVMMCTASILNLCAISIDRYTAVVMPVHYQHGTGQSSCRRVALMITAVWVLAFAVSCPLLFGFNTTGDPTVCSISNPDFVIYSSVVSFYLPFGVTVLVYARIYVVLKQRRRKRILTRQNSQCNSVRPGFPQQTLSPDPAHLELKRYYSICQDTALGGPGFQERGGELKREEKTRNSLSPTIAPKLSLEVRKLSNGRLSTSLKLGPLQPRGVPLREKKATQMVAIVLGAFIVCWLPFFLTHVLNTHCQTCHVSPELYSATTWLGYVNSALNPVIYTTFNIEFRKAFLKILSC
row,Compound,Ki
1,"CN1CCCC1CCNC(=O)[C@H]1C[C@@H]1CN1CCC(c2noc3ccsc23)CC1 (single isomer, unassigned) [compound 832514]",115 nM
2,O=C(NC1CCN(CCc2cccc(Cl)c2)CC1)C1CC1CN1CCC(c2noc3ccsc23)CC1 (stereo not drawn) [832573FH],4.52 nM
3,O=C(NCCCc1nc2ccccc2[nH]1)[C@@H]1C[C@H]1CN1CCC(c2noc3ccsc23)CC1 [832574FH],57.3 nM
4,Cn1nc(C2CCN(C[C@@H]3C[C@H]3C(=O)NCCCN3CCCCC3)CC2)c2cc(C(F)(F)F)ccc21 [833585ES],5.86 nM
5,CN1C2CCC1CC(NC(=O)C1CC1CN1CCC(c3nn(C)c4c(C(F)(F)F)cccc34)CC1)C2 (stereo not drawn) [A002328941],23.9 nM

# Same assay, conditions: Table 2; unit inferred; read-out: d3Ki
row,Compound,Ki
1,CC1CCC(NC(=O)C2CC2CN2CCN(c3ccc(C(F)(F)F)cc3)CC2)CC1 (stereo not drawn) [817039A],35 nM
2,CCC1CCC(NC(=O)C2CC2CN2CCN(c3ccc(C(F)(F)F)cc3)CC2)CC1 (stereo not drawn) [817043A],18.6 nM
3,CC[C@H]1CC[C@H](NC(=O)[C@@H]2C[C@H]2CN2CCN(c3ccc(Cl)c(Cl)c3)CC2)CC1 [817090A],5.04 nM
4,CC[C@H]1CC[C@H](NC(=O)[C@@H]2C[C@H]2CN2CCN(c3cc(C)ccc3C)CC2)CC1 [817102A],7.57 nM
5,Cc1ccccc1N1CCN(C[C@@H]2C[C@H]2C(=O)N[C@H]2CC[C@H](C)CC2)CC1 [817478A],1.99 nM
6,CCC1CCC(NC(=O)C2CC2CN2CCN(c3ncc(C(F)(F)F)cc3Cl)CC2)CC1 (stereo not drawn) [817480A],5.33 nM
7,C[C@H]1CC[C@H](NC(=O)[C@@H]2C[C@H]2CN2CCN(c3csc4cc(C(F)(F)F)ccc34)CC2)CC1 [817569A],5.38 nM
8,CCC1CCC(NC(=O)C2CC2CN2CCN(c3cc(C)ccc3C)CC2)CC1 (stereo not drawn) [817570A],5.04 nM
9,CCC1CCC(NC(=O)C2CC2CN2CCN(c3ccc(C)cc3C)CC2)CC1 (stereo not drawn) [817571A],11.5 nM
10,C[C@H]1CC[C@H](NC(=O)[C@H]2C[C@@H]2CN2CCN(c3csc4cc(C(F)(F)F)ccc34)CC2)CC1 [(+)-816589],1070 nM
11,C[C@H]1CC[C@H](NC(=O)[C@@H]2C[C@H]2CN2CCN(c3csc4cc(C(F)(F)F)ccc34)CC2)CC1 [(-)-817569],2.62 nM

# Other lines, results leading:
row,Ki,Compound
1,74 nM,O=C(CCCCN1CCN(c2csc3cc(F)ccc23)CC1)Nc1ccc(F)cc1 [compound 813384]
2,39.6 nM,CCCN(C(=O)CCCCN1CCN(c2csc3cc(F)ccc23)CC1)c1ccc(F)cc1 [compound 814648]
3,38.9 nM,O=C(CCCCN1CCN(c2csc3cc(F)ccc23)CC1)N(Cc1ccccc1)c1ccc(F)cc1 [compound 814649]
4,5 nM,C[C@H]1CC[C@H](NC(=O)[C@@H]2C[C@H]2CN2CCN(c3csc4cc(C(F)(F)F)ccc34)CC2)CC1 [compound 815916]
5,18 nM,CCOC(=O)[C@H]1CC[C@H](NC(=O)[C@@H]2C[C@H]2CN2CCN(c3csc4cc(C(F)(F)F)ccc34)CC2)CC1 [compound 815917]
6,15 nM,CC[C@H]1CC[C@H](NC(=O)[C@@H]2C[C@H]2CN2CCN(c3csc4cc(C(F)(F)F)ccc34)CC2)CC1 [compound 815918]
7,0.98 nM,CC1CCC(NC(=O)C2CC2CN2CCN(c3cccc(Cl)c3Cl)CC2)CC1 (stereo not drawn) [compound 817037]
8,0.952 nM,COc1ccc(Cl)cc1N1CCN(CC2CC2C(=O)NC2CCC(C)CC2)CC1 (stereo not drawn) [compound 817038]
9,14.8 nM,CC1CCC(NC(=O)C2CC2CN2CCN(c3ccc(C(F)(F)F)cc3)CC2)CC1 (stereo not drawn) [compound 817039]

# Same assay, conditions: d3Ki, Table 2; unit inferred
row,Compound,Ki
1,C[C@H]1CC[C@H](NC(=O)[C@@H]2C[C@H]2CN2CCN(c3noc4ccsc34)CC2)CC1 [817892A],3.02 nM

# Same assay, conditions: read-out: D3 Ki
row,Compound,Ki
1,COCCN1CCN(C(=O)[C@@H]2C[C@H]2CN2CCN(c3nn(C)c4ccc(OC)cc34)CC2)CC1 [832748FH],79.1 nM
2,O=C(NCCCN1CCCCC1)[C@@H]1C[C@H]1CN1CCN(c2nn(-c3ccc(C(F)(F)F)cc3)c3ccsc23)CC1 [A002201942],30.2 nM
3,Cn1nc(N2CCN(C[C@@H]3C[C@H]3C(=O)NCCCN3CCOCC3)CC2)c2sccc21 [A002202402],47.3 nM
4,O=C(NCCCN1CCCCC1)[C@@H]1C[C@H]1CN1CCC(c2nn(CC(F)(F)F)c3ccsc23)CC1 [A002328969],137 nM
5,O=C([C@@H]1C[C@H]1CN1CCC(c2nn(CC(F)(F)F)c3ccsc23)CC1)N1CCC(Cn2ccnc2)CC1 [A002328970],36.2 nM
6,Cn1nc(C2CCN(C[C@@H]3C[C@H]3C(=O)NCCCN3CCCCC3)CC2)c2cccc(C(F)(F)F)c21 [A002329092],321 nM
7,Cn1nc(C2CCN(C[C@@H]3C[C@H]3C(=O)NCCCn3ccnc3)CC2)c2cccc(C(F)(F)F)c21 [A002329093],411 nM
8,Cn1nc(N2CCN(C[C@@H]3C[C@H]3C(=O)NCCCN3CCSCC3)CC2)c2sccc21 [A002350370],81.2 nM
9,Cn1nc(C2CCN(C[C@@H]3C[C@H]3C(=O)N3CCC(Cn4ccnc4)CC3)CC2)c2sccc21 [A002436292],129 nM
10,O=C(NC1CCN(Cc2ccc(F)c(F)c2)CC1)[C@@H]1C[C@H]1CN1CCN(c2nn(-c3ccc(OC(F)(F)F)cc3)c3ccsc23)CC1 [A002437083],11 nM

# More lines, now with the values ahead:
row,Ki,Compound
1,34.7 nM,CN1CCCC1CCNC(=O)[C@@H]1C[C@H]1CN1CCC(c2noc3ccsc23)CC1 (mixture of isomers) [compound 831936]
2,30.6 nM,CC(C)(C)OC(=O)N1CCCC(CNC(=O)[C@@H]2C[C@H]2CN2CCC(c3noc4ccsc34)CC2)C1 (mixture of isomers) [compound 833374]
3,3.31 nM,O=C(NCC1CCCNC1)[C@@H]1C[C@H]1CN1CCC(c2noc3ccsc23)CC1 (mixture of isomers) [compound 833385]
4,0.454 nM,"C[C@H]1CC[C@H](NC(=O)[C@@H]2C[C@H]2CN2CCC(c3cc4ccccc4s3)CC2)CC1 (relative stereo) [compound 831148, 2R-(4-Benzo[b]thiophen-2-yl-piperidin-1-ylmethyl)-1R-cyclopranecarboxylic acid (trans-4-methyl-cyclohexyl)-amide]"
5,16.2 nM,O=C(NCCCn1ccnc1)[C@@H]1C[C@H]1CN1CCN(c2nc3cccc4c3n2CCC4)CC1 [A002437350]
6,552 nM,CN1CCN(CCCNC(=O)[C@@H]2C[C@H]2CN2CCN(c3nc4cccc5c4n3CCC5)CC2)CC1 [A002439100]
7,55.3 nM,CC(C)(C)OC(=O)N1CCC(CNC(=O)[C@@H]2C[C@H]2CN2CCC(c3noc4c(C(F)(F)F)cccc34)CC2)CC1 [A002439261]
8,88 nM,CN1CCN(CCCNC(=O)[C@@H]2C[C@H]2CN2CCC(c3nn(CC(F)(F)F)c4ccsc34)CC2)CC1 [A002439265]

# Same assay, conditions: read-out: d3Ki
row,Compound,Ki
1,O=C(N[C@H]1CC[C@H](C(=O)O)CC1)[C@@H]1C[C@H]1CN1CCN(c2csc3cc(C(F)(F)F)ccc23)CC1 [816078A],89.7 nM
2,O=C(NCc1nc2ccccc2[nH]1)[C@@H]1CCC[C@H]1N1CCN(c2csc3cc(F)ccc23)CC1 [825826G],32.5 nM
3,O=C(NCC1CC1)[C@@H]1CCC[C@H]1N1CCN(c2csc3cc(F)ccc23)CC1 [825829G],40.1 nM
4,O=C(NCc1cccnc1)[C@@H]1CCC[C@H]1N1CCN(c2csc3cc(F)ccc23)CC1 [825834G],6.9 nM

# The next lines start with the values.
row,Ki,Compound
1,11 nM,O=C(N[C@H]1CC[C@H](O)CC1)[C@@H]1C[C@H]1CN1CCN(c2csc3cc(C(F)(F)F)ccc23)CC1 [compound 816592]
2,7.47 nM,O=C(NC1CCC(CO)CC1)C1CC1CN1CCN(c2csc3cc(C(F)(F)F)ccc23)CC1 (stereo not drawn) [compound 816593]

# Same assay, conditions: the 17th table; read-out: D3 Ki
row,Ki,Compound
1,154 nM,C[C@H]1CC[C@H](N2CC(CN3CCN(c4noc5ccsc45)CC3)CC2=O)CC1 (stereo partly drawn) [832831 DA]
